We go through nine compounds from US4372964A, “Antiinflammatory 4,5-diaryl-1H-imidazole-2-methanols” (E. I. Du Pont de Nemours and Company, priority 1981, dated 1983).

Experiment [1] relates to phenylquinone writhing in mice. Kind of experiment: Phenylquinone Writhing Test. The class given is in vivo, female white mice. The following applies: Mus musculus, Table 3, Formula I, oral, observed from 30 minutes after dosing for 10 minutes. As for the experimental part:
Aqueous (0.10% phenyl-p-benzoquinone) phenylquinone was injected intraperitoneally at 24 minutes later using 0.20 ml per mouse.
In general terms: In writhing tests, fewer writhes than in controls are read as antinociception.

Experiment [2] relates to adjuvant-induced arthritis in rats. Description: Established Adjuvant-Induced Arthritis in Rats. It counts as in vivo, Lewis (Wistar) male rats. The following applies: Rattus norvegicus; for ED50: Table 3, Formula I, oral once daily 7 days (days 14-20), decrease from control paw volume, day 21.

Molecules are shown by their SMILES. Where only a bound is given, the exact number is not on record here.

On to `CCOC(=O)OC(c1nc(-c2ccc(OC)cc2)c(-c2ccc(OC)cc2)n1C)(C(F)(F)F)C(F)(F)F` [Example 6, 4,5-Bis(4-methoxyphenyl)-1-methyl-α,α-di(trifluoromethyl)-1H-imidazole-2-methanol, Ethylcarbonate], for which the ED50 (in general, the dose at which the effect has come halfway, by size or by number of responders) in experiment [1] was over 108 mg/kg. Moreover, the inhibition in vivo at 45 mg/kg in experiment [2] (168 h, Table 3, dose 45 mg/kg, oral once daily 7 days, read-out: Adjuvant Arthritis, percent reduction in paw volume at the indicated dose) was 17%.
In the case of `OC(c1nc(-c2ccc(Cl)cc2)c(-c2ccc(Cl)cc2)[nH]1)(C(F)(F)F)C(F)(F)F` [Example 22], the ED50 in experiment [1] is over 135 mg/kg. Also, the inhibition in vivo at 9 mg/kg in experiment [2] (168 h, Table 3, dose 9 mg/kg, oral once daily 7 days, read-out: Adjuvant Arthritis, percent reduction in paw volume at the indicated dose) was 37%.
Turning to `COc1ccc(-c2nc(C(O)C(F)(F)F)[nH]c2-c2ccc(OC)cc2)cc1` (stereo not drawn) [Example 10, 4,5-Bis(4-methoxyphenyl)-α-(trifluoromethyl)-1H-imidazole-2-methanol], the ED50 in experiment [1] amounted to 1.9 mg/kg; in experiment [2], 45 mg/kg.
On the same counts, the results for `COc1ccc(-c2nc(C(C)(C)O)[nH]c2-c2ccc(OC)cc2)cc1` [Example 30, 4,5-bis(4-methoxyphenyl)-α,α-dimethyl-1H-imidazole-2-methanol] are 4.6 mg/kg and 6.4 mg/kg.
On the same counts, the results for `OC(c1nc(-c2ccc(F)cc2)c(-c2ccc(F)cc2)[nH]1)C(F)(F)F` (stereo not drawn) [Example 27] are over 108 mg/kg and 14 mg/kg.
On the same counts, the results for `CC(O)(c1nc(-c2ccc(F)cc2)c(-c2ccc(F)cc2)[nH]1)C(F)(F)C(F)(F)F` (stereo not drawn) [Example 11, 4,5-Bis(4-Fluorophenyl)-α-methyl-α-/pentafluoroethyl-1H-imidazole-2-methanol] are over 108 mg/kg and 1.4 mg/kg.
For `OC(c1nc(-c2ccccc2)c(-c2ccccc2)[nH]1)(C(F)(F)F)C(F)(F)F` [Example 20], the values for the ED50 in experiment [1] and in experiment [2] were 57 mg/kg and 27 mg/kg, respectively.
As for `COc1ccc(-c2nc(C(O)(C(F)(F)F)C(F)(F)F)n(C)c2-c2ccc(OC)cc2)cc1` [Example 4, 4,5-Bis(4-methoxyphenyl)-1-methyl-α,α-(trifluoromethyl)-1H-imidazole-2-methanol], the ED50 was over 135 mg/kg in experiment [1] and 15 mg/kg in experiment [2].
In the same order, the values of `CC(O)(c1nc(-c2ccc(F)cc2)c(-c2ccc(F)cc2)[nH]1)C(F)(F)F` (stereo not drawn) [Example 3, 4,5-Bis(4-fluorophenyl)-α-methyl-α-trifluoromethyl-1H-imidazole-2-methanol] are 39 mg/kg and 1.8 mg/kg.
